Here are results for 24 compounds from patent publication US4623662A, “Antiatherosclerotic ureas and thioureas” (American Cyanamid Company, priority 1985, dated 1986).

For assay [1], the target named is T1, fatty acyl CoA: cholesterol acyl transferase (ACAT) (Rattus norvegicus, UniProt O70536).
T1 construct: The supernatant, containing the microsomal fraction, served as the source of the cholesterol-esterifying enzyme; from tissue; host or cells: rat adrenals, supernatant of 1,000 x g centrifugation containing the microsomal fraction
T1 sequence (O70536 1-545): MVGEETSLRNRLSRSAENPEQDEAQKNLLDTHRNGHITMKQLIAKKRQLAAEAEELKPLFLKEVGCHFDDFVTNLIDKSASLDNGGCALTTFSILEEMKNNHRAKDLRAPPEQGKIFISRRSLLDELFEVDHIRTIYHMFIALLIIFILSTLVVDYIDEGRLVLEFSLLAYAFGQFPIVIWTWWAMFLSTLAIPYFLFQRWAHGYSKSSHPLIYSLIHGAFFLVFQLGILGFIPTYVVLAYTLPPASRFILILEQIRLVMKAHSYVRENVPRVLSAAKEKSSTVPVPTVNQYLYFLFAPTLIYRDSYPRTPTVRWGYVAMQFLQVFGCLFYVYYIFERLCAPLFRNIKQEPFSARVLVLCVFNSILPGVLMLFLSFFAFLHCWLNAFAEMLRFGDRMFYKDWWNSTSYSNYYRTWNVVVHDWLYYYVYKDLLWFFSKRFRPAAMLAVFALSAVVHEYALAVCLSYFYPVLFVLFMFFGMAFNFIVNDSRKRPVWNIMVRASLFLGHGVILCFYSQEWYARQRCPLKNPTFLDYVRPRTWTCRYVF
Briefly: Inhibition of fatty acyl CoA:cholesterol acyl transferase (ACAT), rat adrenal enzyme. The format is biochemical. The following applies: for IC50: several concentrations. Summed up: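 Read-out was scintillation counting of [14C]cholesteryl ester, isolated by TLC, after 10 min at 37° C with [14C]oleoyl CoA. Beforehand, compound (final 5.2 μg/ml in single-concentration tests) was preincubated 10 min at 37° C with BSA and rat adrenal microsomal supernatant in pH 7.4 phosphate. Results given as percent inhibition versus control or IC50 over several concentrations.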

The test system of assay [2] is cholesterol absorption. Kind of assay: Inhibition of cholesterol absorption in rats fed 1% cholesterol:0.5% cholic acid diet. The format is in vivo, male Sprague-Dawley rats. The settings on record: po, 336 h, rat, 2 weeks; for response vs control in vivo at 0.03 %: dose .03% of the diet; for response vs control in vivo at 0.01 %: dose .01% of the diet. As for the experimental part:
Inhibition of cholesterol absorption was determined by feeding male Sprague-Dawley rats, weighing 150-170 g, a 1% cholesterol:0.5% cholic acid diet for 2 weeks. The diet also contained compounds being tested at a dose of 0.001, 0.003, 0.01, or 0.03% of the diet. Control rats were fed the same diet without any compound. At the end of the test, the rats were sacrificed by decapitation. Blood was collected, centrifuged at […] for 10 minutes at 4° C.; and the serum was then analyzed for cholesterol and triglycerides enzymatically by the method of Trinder, P., Analyst, 77, 321 (1952) on a Centrifichem 400 analyzer. Livers were removed, a 0.4 g sample was taken from the center of the large lobe, and the sample was subjected to saponification using 25% saturated potassium hydroxide in ethanol. The resulting neutral sterols were extracted with petroleum ether and the extract analyzed for cholesterol. The effectiveness of the compound in inhibiting cholesterol absorption was measured by the lowering of either serum cholesterol or liver cholesterol relative the values for control rats.
Compounds which produced statistically significant inhibition of cholesterol absorption are considered to be active. Liver sterol (LS) and serum sterol (SS) values are expressed as a percentage of control values.

Where [3] appears, read: rat adrenal ACAT, final concentration 5.2 μg/ml, read-out: % Inhibition.
Where [4] appears, read: read-out: LS (liver sterol), percentage of control values.
Setting [5] is: read-out: SS (serum sterol), percentage of control values.

Read-outs that look alike come from different tables or passages of the source.

As for `Cc1cc(Cl)ccc1NC(=O)N(Cc1ccccc1)C(Cc1ccccc1)c1ccc(OCc2ccccc2)cc1` (stereo not drawn) [1-Benzyl-1-[2-phenyl-1-(4-benzyloxyphenyl)ethyl]-3-(2-methyl-4-chlorophenyl)urea], the inhibition at 5.2 µg/mL in assay [1] (setting [3]) is 89.3%. Moreover, the values for the response vs control in vivo at 0.03 % in assay [2] (setting [4]) and in assay [2] (setting [5]) were 31% and 50%, respectively.
Take `CCCCCCCN(Cc1ccc(CCC(C)C)cc1)C(=O)Nc1c(C)cc(Cl)cc1C` [1-(n-Heptyl)-1-[4-(isopentyl)benzyl]-3-(4-chloro-2,6-dimethylphenyl)urea]: the midpoint of inhibition in assay [1] (rat adrenal ACAT), the IC50, lay at 0.13 µM. In addition, the results for the response vs control in vivo at 0.01 % in assay [2] (setting [4]) and in assay [2] (setting [5]) were 10% and 17%, respectively.
As for `CCCCOc1ccc(CN(Cc2ccccc2)C(=O)Nc2cc(Cl)c(Cl)cc2Cl)cc1` [1-Benzyl-1-(4-n-butyloxybenzyl)-3-(2,4,5-trichlorophenyl)urea], the inhibition at 5.2 µg/mL in assay [1] (setting [3]) stood at 89%. Further, the response vs control in vivo at 0.03 % is 65% in assay [2] (setting [4]) and 66% in assay [2] (setting [5]).
As to `CCCCCCCN(Cc1ccc(CCCC)cc1)C(=O)Nc1cccc(C)c1` [1-(n-Heptyl)-1-(4-n-butylbenzyl)-3-(3-methylphenyl)urea], the inhibition at 5.2 µg/mL in assay [1] (setting [3]) was found to be 93.8%. The response vs control in vivo at 0.03 % in assay [2] (setting [4]) worked out at 42%; in assay [2] (setting [5]) it was 49%.
`Cc1cc(Cl)cc(C)c1NC(=O)N(CCC(C)(C)C)Cc1ccc(Cl)cc1` [1-(3,3-Dimethylbutyl)-1-(4-chlorobenzyl)-3-(4-chloro-2,6-dimethylphenyl)urea] gave an inhibition at 5.2 µg/mL in assay [1] of 90%. The response vs control in vivo at 0.03 % came out at 25% in assay [2] (setting [4]) and 46% in assay [2] (setting [5]).
In the case of `CCCCc1ccc(CN(Cc2ccccc2)C(=O)Nc2ccc(C)cc2C)cc1` [1-Benzyl-1-(4-n-butylbenzyl)-3-(2,4-dimethylphenyl)urea], in assay [1] (setting [3]), the inhibition at 5.2 µg/mL amounted to 91.9%. Also, the values for the response vs control in vivo at 0.03 % in assay [2] (setting [4]) and in assay [2] (setting [5]) were 20% and 41%, respectively.
The compound `CCCCCCCN(Cc1ccc(CCCC)cc1)C(=O)Nc1c(Cl)cc(Cl)cc1Cl` [1-(n-Heptyl)-1-(4-n-butylbenzyl)-3-(2,4,6-trichlorophenyl)urea] registered an inhibition at 5.2 µg/mL in assay [1] of 90%. Also, the figures for the response vs control in vivo at 0.03 % in assay [2] (setting [4]) and in assay [2] (setting [5]) were 8% and 28%, respectively.
Regarding `CC(C)(C)CCN(Cc1ccc(CC(C)(C)C)cc1)C(=O)Nc1c(Cl)cc(Cl)cc1Cl` [1-(3,3-Dimethylbutyl)-1-[4-(2,2-dimethylpropyl)benzyl]-3-(2,4,6-trichlorophenyl)urea], in assay [1], the inhibition at 5.2 µg/mL stood at 90%. The values for the response vs control in vivo at 0.03 % in assay [2] (setting [4]) and in assay [2] (setting [5]) were 15% and 32%, respectively.
Taken in the same sequence, the figures for `CCCCc1ccc(CN(CCCCCCO)C(=O)Nc2c(Cl)cc(Cl)cc2Cl)cc1` [1-[(4-Butylphenyl)methyl]-1-(6-hydroxyhexyl)-3-(2,4,6-trichlorophenyl)urea] were 90%, 32% and 35%.
`CCCCc1ccc(CN(CCCCC(C)(C)C)C(=O)Nc2c(Cl)cc(Cl)cc2Cl)cc1` [1-(5,5-Dimethylhexyl)-1-[4-(n-butyl)benzyl]-3-(2,4,6-trichlorophenyl)urea] gave an inhibition at 5.2 µg/mL in assay [1] of 90%. Besides, the response vs control in vivo at 0.03 % in assay [2] (setting [4]) worked out at 32%; in assay [2] (setting [5]), 45%.
For `Cc1cc(Cl)ccc1NC(=O)N(CCC(C)(C)C)Cc1ccc(Cl)cc1` [1-(3,3-Dimethylbutyl)-1-(4-chlorobenzyl)-3-(4-chloro-2-methylphenyl)urea], in that order: 90%, 60% and 50%.
Turning to `CCCCOc1ccc(CN(Cc2ccccc2)C(=O)Nc2ccc(Cl)cc2Cl)cc1` [1-Benzyl-1-(4-n-butoxybenzyl)-3-(2,4-dichlorophenyl)urea], the inhibition at 5.2 µg/mL in assay [1] (setting [3]) is 80%. For the same compound, the response vs control in vivo at 0.03 % in assay [2] (setting [4]) was 49%; in assay [2] (setting [5]), 53%.
`CCCCCCCN(Cc1ccc(C(C)C)cc1)C(=O)Nc1ccc(F)cc1F` [1-(n-Heptyl)-1-[4-(isopropyl)benzyl]-3-(2,4-difluorophenyl)urea] displayed an IC50 in assay [1] (rat adrenal ACAT) of 1.17 µM. The response vs control in vivo at 0.01 % in assay [2] (setting [4]) was 64%; in assay [2] (setting [5]), 77%.
With `Cc1ccc(NC(=O)N(Cc2ccccc2)C(Cc2ccccc2)c2ccccc2)c(C)c1` (stereo not drawn) [1-Benzyl-1-(1,2-diphenylethyl)-3-(2,4-dimethylphenyl)urea], the inhibition at 5.2 µg/mL in assay [1] (setting [3]) was 95%. Besides, the figures for the response vs control in vivo at 0.03 % in assay [2] (setting [4]) and in assay [2] (setting [5]) were 63% and 52%, respectively.
In the case of `CCCCCCCN(Cc1ccco1)C(=O)Nc1cc(C)c(C)cc1C` [1-(2-Furanylmethyl)-1-heptyl-3-(2,4,5-trimethylphenyl)urea], the inhibition at 5.2 µg/mL in assay [1] (setting [3]) was 93.8%. Moreover, the response vs control in vivo at 0.03 % came out at 38% in assay [2] (setting [4]) and 44% in assay [2] (setting [5]).
Consider `CCCCc1ccc(CN(Cc2ccccc2)C(=O)Nc2cc(C)c(C)cc2C)cc1` [1-Benzyl-1-(4-n-butylbenzyl)-3-(2,4,5-trimethylphenyl)urea], for which the inhibition at 5.2 µg/mL in assay [1] (setting [3]) is 90.5%. In addition, the response vs control in vivo at 0.03 % in assay [2] (setting [4]) worked out at 10%; in assay [2] (setting [5]), 50%.
For `CCCCc1ccc(CN(CCCCC(C)(C)C)C(=O)Nc2ccc(Cl)cc2C)cc1` [1-(5,5-Dimethylhexyl)-1-[4-(n-butyl)benzyl]-3-(4-chloro-2-methylphenyl)urea], in assay [1], the inhibition at 5.2 µg/mL was found to be 90%. In addition, the response vs control in vivo at 0.03 % came to 34% in assay [2] (setting [4]) and 42% in assay [2] (setting [5]).
`CCCCCCCN(Cc1ccc(CCCCO)cc1)C(=O)Nc1c(C)cc(Cl)cc1C` [1-(n-Heptyl)-1-[4-(4-hydroxybutyl)benzyl]-3-(4-chloro-2,6-dimethylphenyl)urea] yielded an IC50 in assay [1] (rat adrenal ACAT) of 0.82 µM. The response vs control in vivo at 0.01 % in assay [2] (setting [4]) was determined as 26%; in assay [2] (setting [5]), 24%.
Compound `CCCCc1ccc(CN(CCCCCCCl)C(=O)Nc2c(Cl)cc(Cl)cc2Cl)cc1` [1-[(4-Butylphenyl)methyl]-1-(6-chlorohexyl)-3-(2,4,6-trichlorophenyl)urea] yielded an inhibition at 5.2 µg/mL in assay [1] of 90%. Also, the response vs control in vivo at 0.03 % in assay [2] (setting [4]) is 19%; in assay [2] (setting [5]), 34%.
In assay [1], `CCCCc1ccc(CN(CCC(C)(C)C)C(=O)Nc2c(Cl)cc(Cl)cc2Cl)cc1` [1-(3,3-Dimethylbutyl)-1-[4-(n-butyl)benzyl]-3-(2,4,6-trichlorophenyl)urea] came in with an inhibition at 5.2 µg/mL of 90%. Moreover, the results for the response vs control in vivo at 0.03 % in assay [2] (setting [4]) and in assay [2] (setting [5]) were 13% and 37%, respectively.
Turning to `CCCCCCCN(Cc1ccc(OCCCC)cc1)C(=O)Nc1ccc(Cl)cc1Cl` [1-(n-Heptyl)-(4-n-butoxybenzyl)-3-(2,4-dichlorophenyl)urea], in assay [1] (setting [3]), the inhibition at 5.2 µg/mL was 79.9%. Further, the response vs control in vivo at 0.03 % in assay [2] (setting [4]) is 50%; in assay [2] (setting [5]) it was 68%.
Consider `COc1ccccc1CN(Cc1ccccc1F)C(=O)Nc1ccc(C)cc1C` [1-(2-Fluorobenzyl)-1-(2-methoxybenzyl)-3-(2,4-dimethylphenyl)urea], for which, in assay [1] (setting [3]), the inhibition at 5.2 µg/mL amounted to 41.5%. Besides, the response vs control in vivo at 0.03 % came out at 20% in assay [2] (setting [4]) and 45% in assay [2] (setting [5]).
In the case of `Cc1ccc(NC(=O)N(Cc2ccc(C)c(C)c2)Cc2ccccc2Cl)c(C)c1` [1-(3,4-Dimethylbenzyl)-1-(2-chlorobenzyl)-3-(2,4-dimethylphenyl)urea], the inhibition at 5.2 µg/mL in assay [1] (setting [3]) came out at 92.9%. Further, the response vs control in vivo at 0.03 % was 15% in assay [2] (setting [4]) and 44% in assay [2] (setting [5]).
`Cc1ccc(NC(=O)N(Cc2ccc(-c3ccccc3)cc2)Cc2ccc(Cl)c(Cl)c2)c(C)c1` [1-(4-Phenylbenzyl)-1-(3,4-dichlorobenzyl)-3-(2,4-dimethylphenyl)urea]: the inhibition at 5.2 µg/mL in assay [1] (setting [3]) worked out at 36.3%. In addition, the figures for the response vs control in vivo at 0.03 % in assay [2] (setting [4]) and in assay [2] (setting [5]) were 17% and 49%, respectively.

What is called inhibition is the percentage by which the read-out fell short of the control. Broadly, the IC50 is the concentration at which inhibition is half-maximal. Read a high IC50 as a need for much substance.
